From PMC7401273, “Unexpected Enhancement of HDACs Inhibition by MeS Substitution at C-2 Position of Fluoro Largazole” (Marine Drugs, 2020)
Read-outs that look alike come from different tables or passages of the source.

Key:
recombinant human HDAC1 [1] = molecular target: T1, recombinant human HDAC1 (Homo sapiens, UniProt Q13547); set-up: method as in PMID 31163697; settings: previously reported data, cited from earlier work; for Selectivity (HDAC1/6): selectivity of HDAC1 over HDAC6
T1 construct: purchased BPS Biosciences

recombinant human HDAC2 [2] = molecular target: T2, recombinant human HDAC2 (Homo sapiens, UniProt Q92769); set-up: method as in PMID 31163697; settings: previously reported data; cited from earlier work
T2 construct: purchased BPS Biosciences

recombinant human HDAC3 [3] = molecular target: T3, recombinant human HDAC3 (Homo sapiens, UniProt O15379); set-up: method as in PMID 31163697; settings: previously reported data; cited from earlier work
T3 construct: purchased BPS Biosciences

recombinant human HDAC8 [4] = molecular target: T4, recombinant human HDAC8 (Homo sapiens, UniProt Q9BY41); set-up: method as in PMID 31163697; settings: previously reported data; cited from earlier work
T4 construct: purchased BPS Biosciences
T4 sequence (Q9BY41 1-377): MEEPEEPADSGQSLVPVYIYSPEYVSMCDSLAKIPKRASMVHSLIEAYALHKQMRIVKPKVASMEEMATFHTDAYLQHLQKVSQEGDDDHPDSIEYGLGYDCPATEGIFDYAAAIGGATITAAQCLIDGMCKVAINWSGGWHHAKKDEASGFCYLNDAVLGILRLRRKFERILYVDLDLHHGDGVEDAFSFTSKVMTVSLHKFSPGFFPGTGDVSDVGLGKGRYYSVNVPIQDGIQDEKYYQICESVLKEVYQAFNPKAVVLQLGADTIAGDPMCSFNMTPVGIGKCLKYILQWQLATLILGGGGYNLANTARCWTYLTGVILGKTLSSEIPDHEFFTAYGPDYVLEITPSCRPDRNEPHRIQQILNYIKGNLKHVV

recombinant human HDAC6 [5] = molecular target: T5, recombinant human HDAC6 (Homo sapiens, UniProt Q9UBN7); set-up: method as in PMID 31163697; settings: previously reported data; cited from earlier work
T5 construct: purchased BPS Biosciences
T5 sequence (Q9UBN7 1-1215): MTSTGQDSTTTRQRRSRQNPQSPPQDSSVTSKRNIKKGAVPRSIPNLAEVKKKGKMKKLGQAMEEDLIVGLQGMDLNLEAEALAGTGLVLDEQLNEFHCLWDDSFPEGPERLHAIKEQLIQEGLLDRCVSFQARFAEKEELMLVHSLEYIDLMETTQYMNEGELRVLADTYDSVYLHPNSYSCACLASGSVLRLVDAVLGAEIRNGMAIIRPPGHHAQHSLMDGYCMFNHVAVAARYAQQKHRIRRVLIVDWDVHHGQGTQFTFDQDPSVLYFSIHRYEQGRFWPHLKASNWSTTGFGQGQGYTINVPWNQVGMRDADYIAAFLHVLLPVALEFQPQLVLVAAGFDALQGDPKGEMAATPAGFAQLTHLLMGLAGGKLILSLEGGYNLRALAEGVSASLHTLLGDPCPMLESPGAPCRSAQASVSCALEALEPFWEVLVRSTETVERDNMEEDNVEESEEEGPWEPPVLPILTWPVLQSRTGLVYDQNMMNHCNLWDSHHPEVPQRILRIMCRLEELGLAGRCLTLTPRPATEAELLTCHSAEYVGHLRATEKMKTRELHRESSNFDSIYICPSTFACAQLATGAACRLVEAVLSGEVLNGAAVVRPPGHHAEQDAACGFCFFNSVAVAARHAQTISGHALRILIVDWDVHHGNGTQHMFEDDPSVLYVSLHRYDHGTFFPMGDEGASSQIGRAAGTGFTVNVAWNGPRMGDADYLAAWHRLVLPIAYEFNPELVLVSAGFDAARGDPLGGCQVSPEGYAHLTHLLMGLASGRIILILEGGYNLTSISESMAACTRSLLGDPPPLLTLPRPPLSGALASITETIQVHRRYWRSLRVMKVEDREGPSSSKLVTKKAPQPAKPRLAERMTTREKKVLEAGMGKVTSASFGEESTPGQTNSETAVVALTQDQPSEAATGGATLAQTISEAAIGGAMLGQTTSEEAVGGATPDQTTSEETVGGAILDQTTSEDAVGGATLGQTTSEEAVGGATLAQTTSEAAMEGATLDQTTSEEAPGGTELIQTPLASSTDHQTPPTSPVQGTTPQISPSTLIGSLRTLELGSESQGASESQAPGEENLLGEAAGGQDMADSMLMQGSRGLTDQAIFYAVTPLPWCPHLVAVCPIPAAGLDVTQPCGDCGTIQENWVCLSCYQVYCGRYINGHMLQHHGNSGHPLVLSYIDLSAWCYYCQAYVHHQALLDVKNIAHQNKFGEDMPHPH

recombinant human HDAC1 [6] = molecular target: T1, recombinant human HDAC1; assay: recombinant human HDAC1 enzymatic assay; format: biochemical; settings: 10-dose IC50 mode in duplicate, three-fold serial dilution
Description: (§1) The assays were carried out by Shanghai ChemPartner Co., Ltd (Shanghai, China), according to our previous method. Briefly, different concentrations of compounds were incubated with recombinant human HDAC1, HDAC2, HDAC3, HDAC6 and HDAC8 (BPS Biosciences, San Diego, CA, USA) at room temperature for 15 min, which was followed by adding Ac-peptide-AMC substrates to initiate the reaction in Tris-based assay buffer. Reaction mixtures were incubated at room temperature for 60 min in HDAC1, HDAC2, HDAC3 and HDAC6 assays, and were incubated for 240 min in HDAC8 assay. Then, the stop solution containing trypsin was added. The coupled reaction was incubated for another 90 min at 37 °C. Fluorescent AMC released from substrate was measured in SynergyMx (BioTek, Winooski, VT, US) using filter sets as excitation = 355 nm and emission = 460 nm. IC50 values were calculated by GraphPad Prism software (7.0 version., GraphPad Software, San Diego, CA, USA).

recombinant human HDAC2 [7] = molecular target: T2, recombinant human HDAC2; assay: recombinant human HDAC2 enzymatic assay; format: biochemical; settings: 10-dose IC50 mode in duplicate, three-fold serial dilution
Description: The assays were carried out by Shanghai ChemPartner Co., Ltd (Shanghai, China), according to our previous method [23, 24]. Briefly, different concentrations of compounds were incubated with recombinant human HDAC1, HDAC2, HDAC3, HDAC6 and HDAC8 (BPS Biosciences, San Diego, CA, USA) at room temperature for 15 min, which was followed by adding Ac-peptide-AMC substrates to initiate the reaction in Tris-based assay buffer. Reaction mixtures were incubated at room temperature for 60 min in HDAC1, HDAC2, HDAC3 and HDAC6 assays, and were incubated for 240 min in HDAC8 assay. Then, the stop solution containing trypsin was added. The coupled reaction was incubated for another 90 min at 37 °C. Fluorescent AMC released from substrate was measured in SynergyMx (BioTek, Winooski, VT, US) using filter sets as excitation = 355 nm and emission = 460 nm. IC50 values were calculated by GraphPad Prism software (7.0 version., GraphPad Software, San Diego, CA, USA).

recombinant human HDAC3 [8] = molecular target: T3, recombinant human HDAC3; assay: recombinant human HDAC3 enzymatic assay; format: biochemical; settings: 10-dose IC50 mode in duplicate, three-fold serial dilution
Description: as §1

recombinant human HDAC8 [9] = molecular target: T4, recombinant human HDAC8; assay: recombinant human HDAC8 enzymatic assay; format: biochemical; settings: 10-dose IC50 mode in duplicate, three-fold serial dilution
Description: as §1

recombinant human HDAC6 [10] = molecular target: T5, recombinant human HDAC6; assay: recombinant human HDAC6 enzymatic assay; format: biochemical; settings: 10-dose IC50 mode in duplicate, three-fold serial dilution
Description: as §1

A549 cells = assay: in vitro growth inhibition (MTT), A549 cells; format: cell-based; settings: Homo sapiens, 72 h, at least seven-dose, duplicate
Description: (§2) Eca-109, Bel 7402 and U937 cell lines were purchased from ATCC (Manassas, VA, USA), and the other tested cell lines were obtained from the Shanghai Institute for Biological Sciences, Chinese Academy of Sciences (Shanghai, China). MDA-MB-231, Hela, Eca-109 and Bel 7402 cells were cultured in DMEM medium supplemented with 10% heat-inactivated fetal bovine serum, 100 U/mL penicillin and 100 μg/mL streptomycin (Beyotime Biotech, Shanghai, China). A549 cells were cultured in F-12K medium supplemented with 10% heat-inactivated fetal bovine serum, 100 U/mL penicillin and 100 μg/mL streptomycin. HCT116 and SK-OV-3 cells were cultured in McCoy’s 5A medium supplemented with 10% heat-inactivated fetal bovine serum, 100 U/mL penicillin and 100 μg/mL streptomycin. U937 cells were cultured in RPMI-1640 medium supplemented with 10% heat inactivated fetal bovine serum, 100 U/mL penicillin and 100 μg/mL streptomycin. All cells were cultured at 37 °C in humidified air containing 5% CO2. According to our previous method, A549, HCT116, MDA-MB-231, SK-OV-3, Hela, Eca-109, Bel 7403 and U937 (600,000 cells/well) were seeded in 96-well plates and incubated for 24 h before being treated with various concentration of compounds or solvent control. Cells were further incubated for 72 h and then treated with MTT and incubated for another 3 h. The media was then removed and 100 μL DMSO was added to each well. The absorbance at 550 nm was measured by a SpectraMAX340 microplate reader (Molecular Devices, San Jose, CA, USA) with a reference wavelength at 690 nm. Adriamycin was used as a positive control in the assay.

HCT116 cells = assay: in vitro growth inhibition (MTT), HCT116 cells; format: cell-based; settings: Homo sapiens, HCT-116, 72 h, at least seven-dose, duplicate
Description: as §2

MDA-MB-231 cells = assay: in vitro growth inhibition (MTT), MDA-MB-231 cells; format: cell-based; settings: Homo sapiens, 72 h, at least seven-dose, duplicate
Description: as §2

SK-OV-3 cells = assay: in vitro growth inhibition (MTT), SK-OV-3 cells; format: cell-based; settings: Homo sapiens, 72 h, at least seven-dose, duplicate
Description: as §2

Hela cells = assay: in vitro growth inhibition (MTT), Hela cells; format: cell-based; settings: Homo sapiens, 72 h, at least seven-dose, duplicate
Description: as §2, with “Cells were further incubated for 72 h and then treated with MTT and incubated for another 3 h. The media was then removed and 100 μL DMSO was added to each well.” left out, “Adriamycin was used as a positive control in the assay.” left out

Eca-109 cells = assay: in vitro growth inhibition (MTT), Eca-109 cells; format: cell-based; settings: Homo sapiens, 72 h, at least seven-dose, duplicate
Description: as §2, with “Cells were further incubated for 72 h and then treated with MTT and incubated for another 3 h. The media was then removed and 100 μL DMSO was added to each well.” left out, “Adriamycin was used as a positive control in the assay.” left out

Bel 7402 cells = assay: in vitro growth inhibition (MTT), Bel 7402 cells; format: cell-based; settings: Homo sapiens, 72 h, at least seven-dose, duplicate
Description: as §2, with “Cells were further incubated for 72 h and then treated with MTT and incubated for another 3 h. The media was then removed and 100 μL DMSO was added to each well.” left out, “Adriamycin was used as a positive control in the assay.” left out

U937 cells = assay: in vitro growth inhibition (MTT), U937 cells; format: cell-based; settings: Homo sapiens, U-937, 72 h, at least seven-dose, duplicate
Description: as §2, with “Cells were further incubated for 72 h and then treated with MTT and incubated for another 3 h. The media was then removed and 100 μL DMSO was added to each well.” left out, “Adriamycin was used as a positive control in the assay.” left out

[11] = test system: A549, HCT116 and SK-OV-3 cells; assay: in vitro growth inhibition (MTT), range over three cell lines; format: cell-based; settings: towards A549, HCT116 and SK-OV-3 cells
Description: as §2, with “Cells were further incubated for 72 h and then treated with MTT and incubated for another 3 h. The media was then removed and 100 μL DMSO was added to each well.” left out, “Adriamycin was used as a positive control in the assay.” left out

T3 sequence (O15379 whole entry): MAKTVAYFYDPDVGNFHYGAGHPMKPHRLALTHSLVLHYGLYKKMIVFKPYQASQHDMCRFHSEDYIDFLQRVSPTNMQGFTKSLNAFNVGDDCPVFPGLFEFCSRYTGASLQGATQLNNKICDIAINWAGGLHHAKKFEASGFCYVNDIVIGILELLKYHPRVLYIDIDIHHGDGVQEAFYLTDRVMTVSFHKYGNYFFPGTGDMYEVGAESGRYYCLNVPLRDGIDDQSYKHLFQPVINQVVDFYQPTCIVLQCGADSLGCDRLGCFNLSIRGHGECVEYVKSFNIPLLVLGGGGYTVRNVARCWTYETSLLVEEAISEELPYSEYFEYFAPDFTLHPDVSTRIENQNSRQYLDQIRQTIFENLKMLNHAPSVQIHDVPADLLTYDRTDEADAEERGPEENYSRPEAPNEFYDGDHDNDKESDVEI
T3 sequence (Q9Y618 395-489 partner limits assumed): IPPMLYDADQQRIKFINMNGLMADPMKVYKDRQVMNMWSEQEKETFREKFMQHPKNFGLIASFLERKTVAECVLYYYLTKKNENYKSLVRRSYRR
T2 sequence (Q92769 whole entry): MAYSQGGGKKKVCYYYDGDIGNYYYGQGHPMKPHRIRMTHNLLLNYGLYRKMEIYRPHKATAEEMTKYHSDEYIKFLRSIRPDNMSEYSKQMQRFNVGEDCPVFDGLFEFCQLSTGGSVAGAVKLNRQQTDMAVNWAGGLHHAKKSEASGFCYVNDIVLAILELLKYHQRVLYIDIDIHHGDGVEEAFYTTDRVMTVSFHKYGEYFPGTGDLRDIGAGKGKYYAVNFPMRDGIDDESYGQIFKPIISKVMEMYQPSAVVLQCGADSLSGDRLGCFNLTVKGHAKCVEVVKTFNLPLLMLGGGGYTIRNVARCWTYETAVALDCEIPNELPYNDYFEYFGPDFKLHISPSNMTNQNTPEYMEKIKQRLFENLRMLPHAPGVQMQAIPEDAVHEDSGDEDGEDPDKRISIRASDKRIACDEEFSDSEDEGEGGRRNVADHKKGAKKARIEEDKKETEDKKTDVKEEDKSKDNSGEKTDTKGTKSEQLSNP
T1 sequence (Q13547 whole entry): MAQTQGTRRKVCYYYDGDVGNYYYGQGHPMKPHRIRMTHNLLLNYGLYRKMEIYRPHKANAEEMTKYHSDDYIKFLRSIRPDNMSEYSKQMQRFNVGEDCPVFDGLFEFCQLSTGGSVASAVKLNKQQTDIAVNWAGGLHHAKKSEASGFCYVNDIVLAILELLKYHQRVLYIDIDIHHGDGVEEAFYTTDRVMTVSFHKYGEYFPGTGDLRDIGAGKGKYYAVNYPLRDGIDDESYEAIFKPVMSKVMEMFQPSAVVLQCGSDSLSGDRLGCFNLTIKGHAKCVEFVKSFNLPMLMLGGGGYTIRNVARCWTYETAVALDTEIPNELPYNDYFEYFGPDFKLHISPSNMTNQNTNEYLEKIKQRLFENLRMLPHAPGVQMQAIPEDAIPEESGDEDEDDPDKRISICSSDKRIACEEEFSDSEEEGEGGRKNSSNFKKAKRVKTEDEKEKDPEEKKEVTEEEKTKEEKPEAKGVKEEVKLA

Structure (SMILES)	IC50 (recombinant human HDAC1 [1]) [nM]	Selectivity (HDAC1/6) (recombinant human HDAC1 [1])	IC50 (recombinant human HDAC2 [2]) [nM]	IC50 (recombinant human HDAC3 [3]) [nM]	IC50 (recombinant human HDAC8 [4]) [nM]	IC50 (recombinant human HDAC6 [5]) [nM]	IC50 (A549 cells) [nM]	IC50 (HCT116 cells) [nM]	IC50 (MDA-MB-231 cells) [nM]	IC50 (SK-OV-3 cells) [nM]	IC50 (Hela cells) [nM]	IC50 (Eca-109 cells) [nM]	IC50 (Bel 7402 cells) [nM]	IC50 (U937 cells) [nM]	further results
CC(C)C1NC(=O)C2(C)CSC(=N2)c2csc(n2)CNC(=O)CC(C(F)=CCCS)OC1=O (centres unmarked) [Compound 15a]	4.39 ± 0.17	68	21 ± 0.3	39.2 ± 2.3	8.38 ± 2.46	300 ± 5									
CC12CSC(=N1)c1csc(n1)CNC(=O)CC(C(F)=CCCS)OC(=O)C(Cc1ccccc1)NC2=O (centres unmarked) [Compound 15b]	4.24 ± 0.38	80	16.3 ± 0.4	37.1 ± 0.8	17.5 ± 4.2	338 ± 17									
CSCC1NC(=O)C2(C)CSC(=N2)c2csc(n2)CNC(=O)CC(C(F)=CCCS)OC1=O [Compound 15c, (1^2Z,2^2Z,2^4R,8S)-8-((Z)-1-fluoro-4-mercaptobut-1-en-1-yl)-2^4-methyl-5-((methylthio)methyl)-2^4,2^5-dihydro-7-oxa-4,11-diaza-1(4,2),2(2,4)-dithiazolacyclododecaphane-3,6,10-trione]															IC50 (recombinant human HDAC1 [6]): 0.27 ± 0.02 nM; IC50 (recombinant human HDAC2 [7]): 1.33 ± 0.02 nM; IC50 (recombinant human HDAC3 [8]): 2.33 ± 0.15 nM; IC50 (recombinant human HDAC8 [9]): 0.44 ± 0.16 nM; IC50 (recombinant human HDAC6 [10]): 23.9 nM
CCCCCCCC(=O)SCC/C=C(\F)[C@@H]1CC(=O)NCc2nc(cs2)C2=N[C@@](C)(CS2)C(=O)N[C@@H](CSC)C(=O)O1 [Compound 16c, S-((Z)-4-fluoro-4-((1^2Z,2^2Z,2^4R,5R,8S)-2^4-methyl-5-((methylthio)methyl)-3,6,10-trioxo-2^4,2^5-dihydro-7-oxa-4,11-diaza-1(4,2),2(2,4)-dithiazolacyclododecaphane-8-yl)but-3-en-1-yl) octanethioate]							2920 ± 530	1410 ± 540	> 10000	3130 ± 500	100 ± 10	90 ± 20	250 ± 70	80 ± 20	IC50 [11]: 1410 to 3130 nM
CCCCCCCC(=O)SCC/C=C(\F)[C@@H]1CC(=O)NCc2nc(cs2)C2=N[C@@](C)(CS2)C(=O)NCC(=O)O1 [Compound 16d, S-((Z)-4-fluoro-4-((1^2Z,2^2Z,2^4R,8S)-2^4-methyl-3,6,10-trioxo-2^4,2^5-dihydro-7-oxa-4,11-diaza-1(4,2),2(2,4)-dithiazolacyclododecaphane-8-yl)but-3-en-1-yl) octanethioate]							> 10000	6620 ± 1860	> 10000	> 10000					
CCCCCCCC(=O)SCC/C=C/[C@@H]1CC(=O)NCc2nc(cs2)C2=N[C@@](C)(CS2)C(=O)N[C@@H](C(C)C)C(=O)O1 [largazole]							520 ± 170	110 ± 10	4750 ± 1950	250 ± 170	170 ± 10	100	170 ± 20	20	
